Drawing on patent US20160237059A1, “HETEROCYCLIC SUBSTITUTED TRIFLUOROMETHYL PYRIMIDINONES AND THEIR USE” (BAYER PHARMA AKTIENGESELLSCHAFT, priority 2013, published 2016), this text covers IC50 for 25 compounds.

In experiment [1] the target is T1, murine CCR2 (Mus musculus, UniProt P51683).
T1 construct: host or cells: U2OS β-arrestin cell line
Kind of experiment: Functional β-arrestin recruiting test with human MCP-1 (B-2a). The format is cell-based. Particulars: U2OS β-arrestin cell line transfected with murine CCR2; agonist human MCP-1 at EC50 (about 3 nM); in some cases means of several determinations. How it is done: The antagonistic action of test substances on CCR2 was determined in a β-arrestin test. The PathHunter β-arrestin GPCR test system (DiscoveRx Corporation, Ltd.) is a cell-based functional method for detecting binding of β-arrestin to an activated receptor. The molecular basis is a […] complementation measured by the enzymatic conversion of a chemiluminescent substrate. The test cell used was a U2OS β-arrestin cell line transfected with murine CCR2 (93-0543C3, DiscoveRx Corporation, Ltd.).
The test substances were dissolved in dimethyl sulphoxide (DMSO) at a concentration of 10 mM and serially diluted with DMSO in steps of 1:3.16 for a 10-point dose/activity analysis. According to the desired test concentrations, the substances were pre-diluted in Tyrode with 2 mM CaCl2 and 0.05% BSA.
The cells, cultivated in MEM Eagle (supplemented with 10% FCS, 50 U/ml of penicillin, 50 μg/ml of streptomycin, 250 μg/ml of hygromycin and 500 μg/ml of geniticin), were sown at 2000 cells/25 μl in 384 well, μCLEAR/black cell culture plates from Greiner (#781092) and incubated at 37° C. for 24 h. The sowing medium consisted of Opti-MEM (supplemented with 1% FCS, 50 U/ml of penicillin and 50 μg/ml of streptomycin). The cells were pre-incubated for 10 min with 10 μl of the test substances diluted in buffer, and 10 μl of agonist solution [human MCP-1 (PeproTech, #300-04) in Tyrode with 0.05% BSA) were then added. The human MCP-1 was employed at the concentration which corresponds to the EC50 which had been determined in a preliminary test (usually about 3 nM). After 90 min of incubation at 37° C., the solution was removed, and recruitment of β-arrestin to CCR2 was detected with the aid of the PathHunter detection reagent (93-001, DiscoveRx Corporation, Ltd.) according to the instructions of the manufacturer. Luminescence was measured after an incubation time of 60 min using a proprietary luminescence imaging measuring instrument. The molar concentration of the test substance which caused 50% inhibition of the MCP-1 effect (IC50) was determined using a 4-parameter logistic function (Hill function).

The target in experiment [2] is T2, human CCR2 (Homo sapiens, UniProt P41597).
T2 construct: host or cells: Chem-1 cell line
T2 sequence (P41597 1-360 isoform P41597-2): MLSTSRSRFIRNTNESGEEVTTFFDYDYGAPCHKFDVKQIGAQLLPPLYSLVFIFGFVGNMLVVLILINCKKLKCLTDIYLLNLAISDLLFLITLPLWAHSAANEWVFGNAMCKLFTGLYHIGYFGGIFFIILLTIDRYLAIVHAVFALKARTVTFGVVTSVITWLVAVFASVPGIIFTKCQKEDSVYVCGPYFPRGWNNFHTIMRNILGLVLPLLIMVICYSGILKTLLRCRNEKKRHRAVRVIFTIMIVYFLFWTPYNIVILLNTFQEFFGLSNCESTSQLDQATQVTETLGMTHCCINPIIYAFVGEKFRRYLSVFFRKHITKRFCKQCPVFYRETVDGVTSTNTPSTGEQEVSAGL
Nature of the experiment: Functional Ca2+ release test (B-1). The format is cell-based. Particulars: Chem-1 cell line transfected with human CCR2; 50% inhibition of the MCP-1 effect, MCP-1 at EC50 (about 5 nM); in some cases means of several determinations. The method in brief: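 Inhibition of MCP-1-evoked Ca2+ release was measured over 120 s by fluorescence imaging in Fluo-4-loaded, human CCR2-transfected Chem-1 cells. Compounds, tested in 10-point 1:3.16 series, were added 10 min before agonist at its EC50 (typically about 5 nM). IC50 values were obtained by 4-parameter logistic fitting.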

Molecules are shown by their SMILES.

T1 sequence (P51683 whole entry): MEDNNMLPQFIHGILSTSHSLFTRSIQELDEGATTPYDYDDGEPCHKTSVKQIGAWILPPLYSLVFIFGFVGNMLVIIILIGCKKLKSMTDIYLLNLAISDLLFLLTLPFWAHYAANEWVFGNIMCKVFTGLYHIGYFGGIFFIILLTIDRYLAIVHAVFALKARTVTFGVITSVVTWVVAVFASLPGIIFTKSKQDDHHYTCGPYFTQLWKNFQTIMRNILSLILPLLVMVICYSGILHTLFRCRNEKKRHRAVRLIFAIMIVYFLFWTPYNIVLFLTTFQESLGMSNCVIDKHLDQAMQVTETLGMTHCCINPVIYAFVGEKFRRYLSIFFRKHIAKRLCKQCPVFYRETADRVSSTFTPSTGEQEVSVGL

With `O=c1[nH]c(-c2ncccc2Cl)nc(C(F)(F)F)c1Oc1cccc(Cl)c1` [Example 12, 5-(3-chlorophenoxy)-2-(3-chloropyridin-2-yl)-6-(trifluoromethyl)pyrimidin-4(3H)-one], the IC50 in experiment [1] is 100 nM; in experiment [2], 75 nM.
Regarding `O=c1[nH]c(-c2ncccc2Cl)nc(C(F)(F)F)c1Oc1ccc(F)c(F)c1` [Example 13, 2-(3-chloropyridin-2-yl)-5-(3,4-difluorophenoxy)-6-(trifluoromethyl)pyrimidin-4(3H)-one], the IC50 in experiment [1] worked out at 120 nM; in experiment [2], 56 nM.
In the case of `O=c1[nH]c(-c2ncc(F)cc2F)nc(C(F)(F)F)c1Cc1ccc(Cl)c(Cl)c1` [Example 18, 5-(3,4-dichlorobenzyl)-2-(3,5-difluoropyridin-2-yl)-6-(trifluoromethyl)pyrimidin-4(3H)-one], the concentration for half-maximal inhibition (IC50) in experiment [1] stood at 140 nM; in experiment [2] it was 14 nM.
The corresponding values for `Cc1ccc(-c2nc(C(F)(F)F)c(Cc3ccc(Cl)c(Cl)c3)c(=O)[nH]2)nc1` [Example 19] are 300 nM and 9.7 nM.
The corresponding values for `O=c1[nH]c(-c2cccc(Cl)n2)nc(C(F)(F)F)c1Cc1ccc(Cl)c(Cl)c1` [Example 20, 2-(6-chloropyridin-2-yl)-5-(3,4-dichlorobenzyl)-6-(trifluoromethyl)pyrimidin-4(3H)-one] are 380 nM and 12 nM.
The corresponding values for `O=c1[nH]c(-c2ncc(C(F)(F)F)cc2Cl)nc(C(F)(F)F)c1Cc1ccc(Cl)c(Cl)c1` [Example 21, 2-[3-chloro-5-(trifluoromethyl)pyridin-2-yl]-5-(3,4-dichlorobenzyl)-6-(trifluoromethyl)pyrimidin-4(3H)-one] are 230 nM and 28 nM.
In the case of `O=c1[nH]c(-c2ccc(Cl)cn2)nc(C(F)(F)F)c1Cc1ccc(Cl)c(Cl)c1` [Example 22, 2-(5-chloropyridin-2-yl)-5-(3,4-dichlorobenzyl)-6-(trifluoromethyl)pyrimidin-4(3H)-one], the values for the half-maximal inhibitory concentration (IC50) in experiment [1] and in experiment [2] were 400 nM and 7 nM, respectively.
As for `Cc1cccc(-c2nc(C(F)(F)F)c(Cc3ccc(Cl)c(Cl)c3)c(=O)[nH]2)n1` [Example 25, 5-(3,4-dichlorobenzyl)-2-(6-methylpyridin-2-yl)-6-(trifluoromethyl)pyrimidin-4(3H)-one], the IC50 in experiment [1] came to 790 nM; in experiment [2], 33 nM.
`COc1cnccc1-c1nc(C(F)(F)F)c(Cc2ccc(Cl)c(Cl)c2)c(=O)[nH]1` [Example 26]: the IC50 is 190 nM in experiment [1] and 3.2 nM in experiment [2].
The corresponding values for `O=c1[nH]c(-c2cccnc2)nc(C(F)(F)F)c1Cc1ccc(Cl)c(Cl)c1` [Example 27, 5-(3,4-dichlorobenzyl)-2-(pyridin-3-yl)-6-(trifluoromethyl)pyrimidin-4(3H)-one] are 480 nM and 35 nM.
The matching figures for `O=c1[nH]c(-c2ccncc2)nc(C(F)(F)F)c1Cc1ccc(Cl)c(Cl)c1` [Example 28, 5-(3,4-dichlorobenzyl)-2-(pyridin-4-yl)-6-(trifluoromethyl)pyrimidin-4(3H)-one]: 1000 nM and 49 nM.
The corresponding values for `COc1cc(-c2nc(C(F)(F)F)c(Cc3ccc(Cl)c(Cl)c3)c(=O)[nH]2)ccn1` [Example 29, 5-(3,4-dichlorobenzyl)-2-(2-methoxypyridin-4-yl)-6-(trifluoromethyl)pyrimidin-4(3H)-one] are 2600 nM and 92 nM.
For the compound `O=c1[nH]c(-c2cccc(O)n2)nc(C(F)(F)F)c1Oc1ccc(Cl)c(C(F)(F)F)c1` [Example 30, 5-[4-chloro-3-(trifluoromethyl)phenoxy]-2-(6-hydroxypyridin-2-yl)-6-(trifluoromethyl)pyrimidin-4(3H)-one], the IC50 in experiment [1] amounted to 530 nM; in experiment [2], 140 nM.
With `O=c1[nH]c(-c2cccc(O)n2)nc(C(F)(F)F)c1Oc1ccc(Cl)c(Cl)c1` [Example 31, 5-(3,4-dichlorophenoxy)-2-(6-hydroxypyridin-2-yl)-6-(trifluoromethyl)pyrimidin-4(3H)-one], the IC50 in experiment [1] was 1400 nM; in experiment [2] it was 150 nM.
The matching figures for `O=c1[nH]c(-c2cc(O)ccn2)nc(C(F)(F)F)c1Oc1ccc(Cl)c(Cl)c1` [Example 32, 5-(3,4-dichlorophenoxy)-2-(4-hydroxypyridin-2-yl)-6-(trifluoromethyl)pyrimidin-4(3H)-one]: 1100 nM and 51 nM.
Consider `O=c1[nH]c(-c2cc(O)ccn2)nc(C(F)(F)F)c1Oc1ccc(Cl)c(C(F)(F)F)c1` [Example 33, 5-[4-chloro-3-(trifluoromethyl)phenoxy]-2-(4-hydroxypyridin-2-yl)-6-(trifluoromethyl)pyrimidin-4(3H)-one], for which the IC50 is 650 nM in experiment [1] and 46 nM in experiment [2].
The matching figures for `O=c1[nH]c(-c2ncccc2F)nc(C(F)(F)F)c1Cc1ccc(Cl)c(C(F)(F)F)c1` [Example 34, 5-[4-chloro-3-(trifluoromethyl)benzyl]-2-(3-fluoropyridin-2-yl)-6-(trifluoromethyl)pyrimidin4(3H)-one]: 110 nM and 2.7 nM.
The corresponding values for `O=c1[nH]c(-c2cccc(Cl)n2)nc(C(F)(F)F)c1Oc1ccc(Cl)c(C(F)(F)F)c1` [Example 36, 2-(6-chloropyridin-2-yl)-5-[4-chloro-3-(trifluoromethyl)phenoxy]-6-(trifluoromethyl)pyrimidin-4(3H)-one] are 140 nM and 6.2 nM.
The corresponding values for `Nc1cccc(-c2nc(C(F)(F)F)c(Oc3ccc(Cl)c(Cl)c3)c(=O)[nH]2)n1` [Example 43, 2-(6-aminopyridin-2-yl)-5-(3,4-dichlorophenoxy)-6-(trifluoromethyl)pyrimidin-4(3H)-one] are 220 nM and 6.6 nM.
For the compound `Nc1oc(=O)sc1-c1nc(C(F)(F)F)c(Cc2ccc(Cl)c(Cl)c2)c(=O)[nH]1` [Example 46, 2-(5-Amino-2-oxo-1,3-oxathiol-4-yl)-5-(3,4-dichlorobenzyl)-6-(trifluoromethyl)pyrimidin-4(3H)-one], the 50% inhibitory concentration (IC50) in experiment [1] is 230 nM; in experiment [2] it was 59 nM.
The matching figures for `Nc1ncnn1-c1nc(C(F)(F)F)c(Oc2ccc(Cl)c(Cl)c2)c(=O)[nH]1` [Example 48, 2-(5-Amino-1H-1,2,4-triazol-1-yl)-5-(3,4-dichlorophenoxy)-6-(trifluoromethyl)pyrimidin-4(3H)-one]: 30000 nM and 4.2 nM.
The corresponding values for `O=c1[nH]c(-c2cc[nH]n2)nc(C(F)(F)F)c1Cc1ccc(Cl)c(Cl)c1` [Example 50, 5-(3,4-dichlorobenzyl)-2-(1H-pyrazol-3-yl)-6-(trifluoromethyl)pyrimidin-4(3H)-one] are 4.7 nM and 0.2 nM.
With `Cc1cc(-c2nc(C(F)(F)F)c(Cc3ccc(Cl)c(Cl)c3)c(=O)[nH]2)nn1C` [Example 55, 5-(3,4-dichlorobenzyl)-2-(1,5-dimethyl-1H-pyrazol-3-yl)-6-(trifluoromethyl)pyrimidin-4(3H)-one], the IC50 in experiment [1] was 110 nM; in experiment [2], 4.4 nM.
The corresponding values for `Cn1nccc1-c1nc(C(F)(F)F)c(Oc2ccc(Cl)c(Cl)c2)c(=O)[nH]1` [Example 56, 5-(3,4-dichlorophenoxy)-2-(1-methyl-1H-pyrazol-5-yl)-6-(trifluoromethyl)pyrimidin-4(3H)-one] are 900 nM and 38 nM.
Turning to `Cc1cc(C)n(-c2nc(C(F)(F)F)c(Cc3ccc(Cl)c(Cl)c3)c(=O)[nH]2)n1` [Example 57, 5-(3,4-dichlorobenzyl)-2-(3,5-dimethyl-1H-pyrazol-1-yl)-6-(trifluoromethyl)pyrimidin-4(3H)-one], the IC50 in experiment [1] was found to be 1300 nM; in experiment [2] it was 83 nM.
